Test results from patent publication US20240307409A1, “ARGININE METHYLTRANSFERASE INHIBITOR AND USE THEREOF” (Cytosinlab Therapeutics Co., Ltd., priority 2021, published 2024).

Assays:
PRMT1 = PRMT1 (Homo sapiens, UniProt Q99873); test: PRMT1 enzyme activity test; format: biochemical; conditions: 0.5 nM PRMT1, 3H-SAM, peptide
How it was run: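 Radiometric methylation assay: 0.5 nM PRMT1 preincubated 15 min at room temperature with compound (10-point 3-fold series, 1% DMSO) in pH 8.0 Tris buffer with Tween-20 and DTT. 0.25 uM ³H-SAM and 0.1 uM biotinylated peptide then reacted 120 min. Product captured on streptavidin FlashPlate and counted; IC50 from four-parameter fit of % inhibition.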

Toledo cells = test: Toledo cell proliferation inhibition assay; format: cell-based; conditions: Homo sapiens, Toledo, 144 h; six-day assay, CellTiter-Glo
How it was run: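 Toledo cells seeded at 2000 cells/well in RPMI 1640 + 10% FBS and incubated with compound for six days at 37° C, 5% CO2. Viability was then read by CellTiter-Glo luminescence after 30 min orbital mixing.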

MMA in RKO cells = test: RKO In Cell Western assay (MMA primary antibody); format: cell-based; conditions: Homo sapiens, 72 hours, read-out: RKO ICW_EC30
Experimental: RKO was seeded at a concentration of 20,000 cells/ml into a polylysine-coated 96-well plate (Corning #3599), with 2,000 cells per well and 100 μL of culture mediumper well. 500 nL of compound was added to the 96-well plate. 3) The 96-well plate was incubated in a 37° C., 5% CO2 incubator for 72 hours. After three days, the 96-well plate was taken from the incubator, 100 μL of 8% paraformaldehyde solution was added to each well, and the plate was placed at room temperature for 15 min. After 15 min, the liquid in the plate was shaken out and the plate was washed three times with phosphate buffer (1*PBS). The liquid in the plate was shaken out and 200 μL of membrane-breaking buffer (0.1% (v/v) Tween-20 in PBS) was added and the plate was incubated on a shaker for 30 min. After half an hour, the liquid in the plate was shaken out, and blocking buffer was added and the plate was incubated for two hours at room temperature with shaking. After that, the liquid in the plate was shaken off, and the blocking solution containing primary antibody (MMA primary antibody, CST #8711S, 1:1000 v/v) was added to the 96-well plate and the plate was incubated at 4° C. overnight with shaking. The next day, the plate was washed three times with washing solution (0.05% (v/v) Tween-20 in PBS), and a blocking solution containing secondary antibody (goat anti-rabbit IgG (H+L) Invitrogen #31460, 1:10,000 v/v) was added and the plate was incubated for two hours at room temperature. Afterwards, the 96-well plate was washed four times with washing solution. The TMB mixture was added to the 96-well plate and then the plate was incubated for 15 minutes at room temperature with shaking. After that, the reaction terminating solution was added, and the value was read at OD450 nm using an microplate reader. The plate was washed three times with washing solution, and 50 μL of janusgreen staining solution was added, and the plate was incubated for 15 minutes at room temperature with shaking. The reaction was washed ten times with water until no color residue was left. 200 μL of 0.5 M hydrochloric acid solution was added to each well and the plate was incubated for 10 min at room temperature. The value was read at OD595 nm using Flexstation.
Firstly, the ratio OD450/OD595 was calculated for each well
Each plate had six DMSO negative control groups (ZPE) and six 10 μM positive control groups (HPE), and the average of the control group ratios was used to determine the percentage of activation for each test well. The compounds to be tested were triple diluted with DMSO for a total of 8 concentration points with a starting concentration of 5 μM. The equation for calculating the activation percentage of each test well was: […]

Chain of PRMT1 (Q99873 whole entry): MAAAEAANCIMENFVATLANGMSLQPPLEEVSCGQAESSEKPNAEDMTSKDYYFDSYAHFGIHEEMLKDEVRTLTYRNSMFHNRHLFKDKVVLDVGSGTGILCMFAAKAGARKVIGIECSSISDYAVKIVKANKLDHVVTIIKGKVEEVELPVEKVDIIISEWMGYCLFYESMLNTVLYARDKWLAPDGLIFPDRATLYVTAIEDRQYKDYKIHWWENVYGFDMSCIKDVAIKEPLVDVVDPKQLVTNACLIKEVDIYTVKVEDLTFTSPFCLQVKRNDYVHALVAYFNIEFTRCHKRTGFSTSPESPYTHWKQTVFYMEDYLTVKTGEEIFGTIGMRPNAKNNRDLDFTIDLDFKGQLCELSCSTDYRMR

Row | SMILES | IC50 (PRMT1) [nM] | IC50 (Toledo cells) [nM] | EC30 (MMA in RKO cells) [nM]
1 | CNCCN(C)Cc1ncccc1C1CCN(c2cccc(C(C)(C)C)c2)CC1 [P044] | < 50 | < 1000 | 250 to 2500
2 | CCOC[C@H]1CC[C@H](c2ccccc2CN(C)CCNC)CC1 [P049] | < 50 | < 1000 | < 250
3 | CNCCN(C)Cc1ccccc1[C@H]1CC[C@@]2(CCCCO2)CC1 [P050] | < 50 | < 1000 | 250 to 2500
4 | CNCCN(C)Cc1ccccc1[C@H]1CC[C@]2(CCCCO2)CC1 [P051] | < 50 | < 1000 | 250 to 2500
5 | CNCCN(C)Cc1ccccc1[C@H]1CC[C@]2(CCCOC2)CC1 [P052] | < 50 | < 1000 | 250 to 2500
6 | CNCCN(C)Cc1ccccc1[C@H]1CC[C@@]2(CCCOC2)CC1 [P053] | < 50 | < 1000 | 250 to 2500
7 | CCOCC1CC=C(c2ccccc2CN(C)CCNC)CC1 (stereo not drawn) [P054] | < 50 | < 1000 | < 250
8 | CNCCN(C)Cc1ccccc1[C@H]1CC[C@H](OC(C)C)CC1 [P056] | < 50 | < 1000 | 250 to 2500
9 | CNCCN(C)Cc1ccccc1[C@H]1CC[C@@H](OC(C)C)CC1 [P057] | < 50 | < 1000 | 250 to 2500
10 | CNCCN(C)Cc1ccccc1C1CCN(c2ccc(C(F)(F)F)cc2)CC1 [P069] | < 50 | < 1000 | 250 to 2500
11 | CNCCN(C)Cc1ncccc1C1CCN(CCc2ccccc2)CC1 [P074] | < 50 | < 1000 | 250 to 2500
12 | CNCCN(C)Cc1ncccc1C1CCc2ccccc2CC1 [P075] | < 50 | < 1000 | 250 to 2500
13 | CNCCN(C)Cc1ncccc1C1CCN(c2cccc(C(F)F)c2)CC1 [P078] | < 50 | < 1000 | < 250
14 | CNCCN(C)Cc1ncccc1C1CCN(c2cc(C)cc(C)c2)CC1 [P079] | < 50 | < 1000 | < 250
15 | CNCCN(C)Cc1nc(C)ccc1C1CCN(c2cccc(C)c2)CC1 [P080] | 50 to 500 | < 1000 | 250 to 2500
16 | CNCCN(C)Cc1ccc(C)nc1C1CCN(c2cccc(C)c2)CC1 [P081, N^1,N^2-dimethyl-N1-((6-methyl-2-(1-(m-tolyl)piperidin-4-yl)pyridin-3-yl)methyl)ethane-1,2-diamine] | < 50 | < 1000 | < 250
17 | CNCCN(C)Cc1ccc(C(C)O)cc1C1CCN(c2cccc(C)c2)CC1 (stereo not drawn) [P083] | < 50 | < 1000 | < 250
18 | CNCCN(C)Cc1ncccc1C1CCN(c2cc(C)cc(F)c2)CC1 [P085] | < 50 | < 1000 | < 250
19 | CNCCN(C)Cc1ncccc1N1CCc2ccc(C(F)(F)F)cc2CC1 [P088, N^1,N^2-dimethyl-N^1-((3-(7-(trifluoromethyl)-4,5-dihydro-1H-benzo[d]azepin-3(2H)-yl)pyridin-2-yl)methyl)ethane-1,2-diamine] | < 50 | < 1000 | 250 to 2500

Row | SMILES | IC50 (PRMT1) [nM] | IC50 (Toledo cells) [nM] | EC30 (MMA in RKO cells) [nM]
20 | CNCCN(C)Cc1ncccc1C1CCN(c2cccc(Cl)c2)CC1 [P089] | < 50 | < 1000 | < 250
21 | CNCCN(C)Cc1ncccc1C1CCN(c2cccc(C)c2)CC1 [P094] | < 50 | < 1000 | < 250
22 | CNCCN(C)Cc1ncccc1C1CCN(c2ccccc2C)CC1 [P095] | < 50 | < 1000 | < 250
23 | CNCCN(C)Cc1ncccc1N1CCc2cc(F)cc(F)c2CC1 [P106] | < 50 | < 1000 | 250 to 2500
24 | CNCCN(C)Cc1ncccc1N1CCc2cc(F)c(F)cc2CC1 [P107] | < 50 | < 1000 | 250 to 2500
25 | CNCCN(C)Cc1ncccc1N1CCc2ccccc2C(C)C1 (stereo not drawn) [P112] | < 50 | < 1000 | 250 to 2500
26 | CCOCC1(COCC)CCC(c2ccccc2CN(C)CCNC)CC1 [P114] | < 50 | < 1000 | < 250
27 | CNCCN(C)Cc1ncccc1N1CCC(Oc2cc(C(F)(F)F)cc(C(F)(F)F)c2)CC1 [P122] | 50 to 500 | < 1000 | > 2500
28 | CNCCN(C)Cc1ncccc1N1CCC(COc2ccc(C(F)(F)F)cc2)CC1 [P130] | < 50 | < 1000 | 250 to 2500
29 | CNCCN(C)Cc1ncccc1N1CCC(COc2cccc(C(F)(F)F)c2)CC1 [P131] | < 50 | < 1000 | 250 to 2500
30 | CCOCC1(COCC)CCN(c2ccccc2CN(C)CCNC)CC1 [P136] | < 50 | < 1000 | 250 to 2500
31 | CNCCN(C)Cc1ncccc1N1CCC(Oc2cc(F)cc(C(F)(F)F)c2)CC1 [P137] | < 50 | < 1000 | 250 to 2500
32 | CNCCN(C)Cc1ncccc1N1CCC(Oc2cccc(C(F)(F)F)c2)CC1 [P141] | < 50 | < 1000 | 250 to 2500
33 | CNCCN(C)Cc1ncccc1N1CCC(Oc2ccc(C(F)(F)F)cc2)CC1 [P142] | < 50 | < 1000 | 250 to 2500
34 | CNCCN(C)Cc1ncccc1C1CCN(c2cccc(OC(F)(F)F)c2)CC1 [P143] | < 50 | < 1000 | 250 to 2500
35 | CNCCN(C)Cc1ncccc1N1CCC(Oc2cccc(C(F)F)c2)CC1 [P147] | < 50 | < 1000 | 250 to 2500
36 | CNCCN(C)Cc1ncccc1N1CCC(Oc2cc(C)cc(C)c2)CC1 [P148] | < 50 | < 1000 | 250 to 2500
37 | CNCCN(C)Cc1ncccc1N1CCC(C)(COc2ccccc2)CC1 [P149] | < 50 | < 1000 | 250 to 2500
